What was measured:
Cytochrome P450 3A4 = Cytochrome P450 3A4 (Homo sapiens, UniProt P08684); test: Inhibition of CYP3A4 in human liver microsomes using midazolam as substrate incubated for 10 mins in presence of NADPH generating system by LC-MS/MS analysis
Homo sapiens [1] = species: Homo sapiens; test: Selectivity ratio of IC50 for displacement of [3H]PGD2 from full-length recombinant human DP1 receptor expressed in Chem-1 cell membranes to IC50 for displacement of [3H]PGF2alpha from full-length recombinant human FP receptor expressed in HEK293 cell membranes
[2] = Lipophilicity, log D of compound at pH 7.5 by HPLC analysis; settings: buffer
Homo sapiens [3] = species: Homo sapiens; test: Selectivity ratio of IC50 for displacement of [3H]prostaglandin E2 from full-length recombinant human EP2 receptor expressed in HEK293 cell membranes to IC50 for displacement of [3H]PGF2alpha from full-length recombinant human FP receptor expressed in HEK293 cell membranes
Homo sapiens [4] = species: Homo sapiens; test: Selectivity ratio of IC50 for displacement of [3H]prostaglandin E2 from full-length recombinant human EP4 receptor expressed in Chem-1 cell membranes to IC50 for displacement of [3H]PGF2alpha from full-length recombinant human FP receptor expressed in HEK293 cell membranes
Homo sapiens [5] = species: Homo sapiens; test: Selectivity ratio of IC50 for displacement of [3H]PGD2 from full-length recombinant human IP receptor expressed in HEK293 cell membranes to IC50 for displacement of [3H]PGF2alpha from full-length recombinant human FP receptor expressed in HEK293 cell membranes
Homo sapiens [6] = species: Homo sapiens; test: Selectivity ratio of IC50 for displacement of [3H]prostaglandin E2 from full-length recombinant human EP1 receptor expressed in HEK293 cell membranes to IC50 for displacement of [3H]PGF2alpha from full-length recombinant human FP receptor expressed in HEK293 cell membranes
Homo sapiens [7] = species: Homo sapiens; test: Selectivity ratio of IC50 for displacement of [3H]prostaglandin E2 from full-length recombinant human EP3 receptor expressed in HEK293 cell membranes to IC50 for displacement of [3H]PGF2alpha from full-length recombinant human FP receptor expressed in HEK293 cell membranes
[8] = Clearance in Wistar rat at 0.3 to 1 mg/kg, iv administered as bolus dose or 15 mins infusion by LC-MS/MS analysis; format: ADME, organism-based; settings: in vivo, dose 0.3-1 mg/kg; for clearance: Wistar; for CL: 0.25 h
[9] = molecular target: Prostaglandin F2-alpha receptor (Homo sapiens, UniProt P43088); test: Antagonist activity at human FPR expressed in human Chem-1 cells assessed as inhibition of PGF2alpha-induced calcium flux preincubated for 10 mins followed by PGF2alpha stimulation and measured for 120 secs by fluo-8 AM dye based fluorescence assay; format: functional, cell-based
Sequence of Prostaglandin F2-alpha receptor (P43088 whole entry): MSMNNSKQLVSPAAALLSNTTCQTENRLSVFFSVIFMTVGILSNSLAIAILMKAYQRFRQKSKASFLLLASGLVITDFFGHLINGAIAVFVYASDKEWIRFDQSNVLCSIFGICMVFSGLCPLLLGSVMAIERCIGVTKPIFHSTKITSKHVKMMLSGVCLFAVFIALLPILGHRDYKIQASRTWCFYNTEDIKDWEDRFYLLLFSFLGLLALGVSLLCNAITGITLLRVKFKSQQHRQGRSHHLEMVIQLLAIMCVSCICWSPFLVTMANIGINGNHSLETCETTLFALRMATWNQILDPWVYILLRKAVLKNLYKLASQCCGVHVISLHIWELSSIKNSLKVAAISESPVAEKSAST

[10] = Maximum oral bioavailability in rat hepatocytes based well stirred liver model at 1 uM measured after 2 to 90 mins by LC-MS/MS analysis; format: ADME, Hepatocyte; settings: time 2-90 min, read-out: Fmax

Sequence of Cytochrome P450 3A4 (P08684 whole entry): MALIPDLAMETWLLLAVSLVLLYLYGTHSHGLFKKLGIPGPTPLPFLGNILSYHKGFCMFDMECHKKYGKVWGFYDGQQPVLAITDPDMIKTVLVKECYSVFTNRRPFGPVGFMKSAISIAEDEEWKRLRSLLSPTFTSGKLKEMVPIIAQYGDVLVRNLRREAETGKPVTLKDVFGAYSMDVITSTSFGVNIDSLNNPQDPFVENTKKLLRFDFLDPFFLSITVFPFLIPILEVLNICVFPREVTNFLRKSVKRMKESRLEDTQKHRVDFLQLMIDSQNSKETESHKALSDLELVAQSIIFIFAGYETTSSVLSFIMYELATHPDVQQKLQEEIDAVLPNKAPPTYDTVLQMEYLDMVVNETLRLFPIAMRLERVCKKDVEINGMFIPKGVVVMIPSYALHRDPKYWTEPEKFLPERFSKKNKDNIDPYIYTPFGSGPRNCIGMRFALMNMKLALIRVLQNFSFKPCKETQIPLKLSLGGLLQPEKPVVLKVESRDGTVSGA

| SMILES | IC50 (Cytochrome P450 3A4) | Ratio IC50 (Homo sapiens [1]) | logD [2] | Ratio IC50 (Homo sapiens [3]) | Ratio IC50 (Homo sapiens [4]) | Ratio IC50 (Homo sapiens [5]) | Ratio IC50 (Homo sapiens [6]) | Ratio IC50 (Homo sapiens [7]) | clearance [8] | also measured |
| --- | --- | --- | --- | --- | --- | --- | --- | --- | --- | --- |
| Cc1c(C(=O)Nc2ccc(C(=O)O)cc2F)c2cc(Br)ccc2[n+]([O-])c1-c1ccccc1 | > 20 µM | > 91 | 1.4 | > 91 | 53 | > 91 | > 91 | > 91 |  |  |
| O=C(O)c1ccc(NC(=O)c2c(Cl)c(-c3ccccc3)nc3ccc(Br)cc23)c(F)c1 |  | > 38 | 2.1 | > 38 | 14 | > 38 | > 38 | > 38 |  |  |
| Cc1c(-c2ccccc2)nc2ccc(I)cc2c1C(=O)Nc1ccc(C(=O)O)cc1F | > 20 µM | > 86 | 2 | > 86 | 15 | > 86 | > 86 | > 86 | 21.7 mL/min/kg |  |
| Cc1c(N2CCCC2)nc2ccc(Br)cc2c1C(=O)NC[C@@H](CCC(=O)O)c1ccccc1Cl | > 20 µM |  | 2.3 |  |  |  |  |  | 20 mL/min/kg |  |
| Cc1c(-c2ccccc2)nc2ccc(Cl)cc2c1C(=O)Nc1ccc(C(=O)O)cc1F | > 20 µM |  | 1.9 |  | 17 |  |  |  |  |  |
| Cc1c(-c2ccccc2)nc2ccc(Br)cc2c1C(=O)N(C)CCc1ccccn1 |  |  |  |  |  |  |  |  |  | IC50 [9]: 15 µM |
| Cc1c(-c2ccccc2)nc2ccc(C(C)(C)C)cc2c1C(=O)Nc1ccc(C(=O)O)cc1F | > 20 µM | > 87 | 2.1 | > 87 | 170 | > 87 | > 87 | > 87 | 20 mL/min/kg |  |
| Cc1c(-c2ccccc2)nc2ccc(Br)cc2c1CNc1ccc(C(=O)O)cc1F |  |  |  |  |  |  |  |  | 11.7 mL/min/kg | IC50 [9]: 0.025 µM |
| O=C(O)c1ccc(NC(=O)c2c(C3CC3)c(-c3ccccc3)nc3ccc(Br)cc23)c(F)c1 |  |  | 2.1 |  | 8.8 |  |  |  |  |  |
| Cc1c(-c2ccccc2)nc2ccc(Br)cc2c1C(=O)Nc1ccc(C(=O)O)cc1 | > 20 µM | > 110 | 1.9 | > 110 | 10 | > 110 | > 110 | > 110 | 23.3 mL/min/kg | IC50 [9]: 0.15 µM |
| Cc1c(-c2ccccc2)nc2ccc(Br)cc2c1C(=O)NCCc1ccccn1 |  |  |  |  |  |  |  |  |  | IC50 [9]: 0.2 µM; Fh at 1 µM [10]: 7% |
| Cc1c(-c2ccccc2)nc2ccc(C(F)(F)F)cc2c1C(=O)Nc1ccc(C(=O)O)cc1F | > 20 µM | > 64 | 2.1 | > 64 | 13 | > 64 | > 64 | > 64 | 40 mL/min/kg |  |
| Cc1c(-c2ccccc2)cc2ccc(Br)cc2c1C(=O)Nc1ccc(C(=O)O)cc1F |  |  |  |  |  |  |  |  | 10 mL/min/kg | IC50 [9]: 0.013 µM |
| Cc1c(-c2ccccc2)nc2ccc(Br)cc2c1COc1ccc(C(=O)O)cc1F | > 20 µM |  | 2.2 |  | 20 |  |  |  | 20 mL/min/kg | IC50 [9]: 0.25 µM |
| Cc1c(-c2ccccc2)nc2ccc(Br)cc2c1C(=O)Nc1ccc(C(=O)O)cc1F |  | > 76 |  | > 76 | 16 | > 76 | > 76 | > 76 |  |  |
| Cc1c(N2CC(F)(F)C2)nc2ccc(Br)cc2c1C(=O)NCC(CCC(=O)O)c1ccccc1Cl (racemic) | > 20 µM |  | 2.6 |  | > 220 |  |  |  |  |  |
| Cc1c(-c2ccccc2)nc2ccc(Br)cc2c1C(=O)NCC(C)c1ccccn1 (racemic) |  |  | 3.1 |  |  |  |  |  |  | IC50 [9]: 0.19 µM; Fh at 1 µM [10]: 24% |
| COc1ccc(C(CNC(=O)c2c(C)c(-c3ccccc3)nc3ccc(Br)cc23)CC(=O)O)cc1 (racemic) | > 20 µM |  | 1.9 |  | > 63 |  |  |  |  | IC50 [9]: 1.1 µM |
| COc1cccc(C(CNC(=O)c2c(C)c(-c3ccccc3)nc3ccc(Br)cc23)CC(=O)O)c1 (racemic) | > 20 µM |  | 2 |  |  |  |  |  |  |  |
| Cc1c(-c2ccccc2)nc2ccc(Br)cc2c1C(=O)NC(C)Cc1ccccn1 (racemic) |  |  |  |  |  |  |  |  |  | IC50 [9]: 0.5 µM |
| CCC1CCCN(c2nc3ccc(Br)cc3c(C(=O)NCC(CCC(=O)O)c3ccccc3Cl)c2C)C1 (single isomer, unassigned; 52) [listing 1 of 2 here] | 5 µM |  | 3.3 |  |  |  |  |  |  | IC50 [9]: 0.00053 µM; CL [8]: 48.3 mL/min/kg |

| SMILES | IC50 (Cytochrome P450 3A4) | Ratio IC50 (Homo sapiens [1]) | logD [2] | Ratio IC50 (Homo sapiens [3]) | Ratio IC50 (Homo sapiens [4]) | Ratio IC50 (Homo sapiens [5]) | Ratio IC50 (Homo sapiens [6]) | Ratio IC50 (Homo sapiens [7]) | clearance [8] | also measured |
| --- | --- | --- | --- | --- | --- | --- | --- | --- | --- | --- |
| CCC1CCCN(c2nc3ccc(Br)cc3c(C(=O)NCC(CCC(=O)O)c3ccccc3Cl)c2C)C1 (single isomer, unassigned; 52) [listing 2 of 2 here] |  | > 180 |  | > 180 | > 180 | > 180 | > 180 | > 180 |  |  |
| CCC1CCCN(c2nc3ccc(Br)cc3c(C(=O)NCC(CCC(=O)O)c3ccccc3Cl)c2C)C1 (single isomer, unassigned; 53) [listing 1 of 2 here] | 10 µM |  |  |  |  |  |  |  |  | CL [8]: 21.7 mL/min/kg |
| CCC1CCCN(c2nc3ccc(Br)cc3c(C(=O)NCC(CCC(=O)O)c3ccccc3Cl)c2C)C1 (single isomer, unassigned; 53) [listing 2 of 2 here] |  | > 580 |  | > 580 | > 580 | > 580 | > 580 | > 580 |  |  |
| CCC1CCCN(c2nc3ccc(Br)cc3c(C(=O)NCC(CCC(=O)O)c3ccccc3Cl)c2C)C1 (single isomer, unassigned; 54) [listing 1 of 2 here] | 2 µM |  |  |  |  |  |  |  |  |  |
| CCC1CCCN(c2nc3ccc(Br)cc3c(C(=O)NCC(CCC(=O)O)c3ccccc3Cl)c2C)C1 (single isomer, unassigned; 54) [listing 2 of 2 here] |  | > 180 |  | > 180 | > 180 | > 180 | > 180 | > 180 |  |  |
| CCC1CCCN(c2nc3ccc(Br)cc3c(C(=O)NCC(CCC(=O)O)c3ccccc3Cl)c2C)C1 (single isomer, unassigned; 55) [listing 1 of 2 here] | 5 µM |  |  |  |  |  |  |  |  | IC50 [9]: 0.0076 µM |
| CCC1CCCN(c2nc3ccc(Br)cc3c(C(=O)NCC(CCC(=O)O)c3ccccc3Cl)c2C)C1 (single isomer, unassigned; 55) [listing 2 of 2 here] |  | > 300 |  | > 300 | > 300 | > 300 | > 300 | > 300 |  |  |
| Cc1c(-c2ccccc2)nc2ccc(Br)cc2c1C(=O)NCC(CCC(=O)O)c1c(F)ccc(F)c1Cl (single isomer, unassigned; (+)) | > 20 µM |  | 2.2 |  |  |  |  |  |  |  |
| Cc1c(-c2ccccc2)nc2ccc(Br)cc2c1C(=O)NCC(CCCC(=O)O)c1ccccc1Cl (single isomer, unassigned; (+)) | 20 µM |  | 2.3 |  |  |  |  |  |  |  |
| COc1ccccc1C(CNC(=O)c1c(C)c(-c2ccccc2)nc2ccc(Br)cc12)CC(=O)O (single isomer, unassigned; (+)) | > 20 µM |  | 2 |  |  |  |  |  | 46.7 mL/min/kg |  |
| COc1ccccc1C(C)CNC(=O)c1c(C)c(-c2ccccc2)nc2ccc(Br)cc12 (single isomer, unassigned; (+)) |  |  |  |  |  |  |  |  |  | IC50 [9]: 0.25 µM |
| Cc1c(N2CCCCCC2)nc2ccc(Br)cc2c1C(=O)NCC(CCC(=O)O)c1ccccc1Cl (single isomer, unassigned; (+)) |  |  |  |  |  |  |  |  | 21.7 mL/min/kg |  |
| Cc1c(-c2ccccc2)nc2ccc(Br)cc2c1C(=O)NCC(CCC(=O)O)c1ccccc1Cl (single isomer, unassigned; (+)) |  | > 6300 |  | > 6300 | > 6300 | > 6300 | > 6300 | > 6300 |  |  |
| Cc1c(-c2ccccc2)nc2ccc(Br)cc2c1C(=O)NCC(CCC(=O)O)c1ccccc1Cl (single isomer, unassigned; (-)) [listing 1 of 2 here] |  |  |  |  |  |  |  |  |  | CL [8]: 50 mL/min/kg |
| Cc1c(-c2ccccc2)nc2ccc(Br)cc2c1C(=O)NCC(CCC(=O)O)c1c(F)ccc(F)c1Cl (single isomer, unassigned; (-)) | 5 µM |  |  |  |  |  |  |  | 43.3 mL/min/kg |  |
| Cc1c(N2CCCCC2)nc2ccc(Br)cc2c1C(=O)NCC(CCC(=O)O)c1c(F)ccc(F)c1Cl (single isomer, unassigned; (-)) |  |  |  |  |  |  |  |  | 38.3 mL/min/kg |  |
| Cc1c(N2CCCCC2)nc2ccc(Br)cc2c1C(=O)NCC(CCC(=O)O)c1ccccc1Cl (single isomer, unassigned; (-)) |  |  |  |  |  |  |  |  |  | CL [8]: 25 mL/min/kg |
| Cc1c(-c2ccccc2)nc2ccc(Br)cc2c1C(=O)NCC(CCC(=O)O)c1ccccc1Cl (single isomer, unassigned; (-)) [listing 2 of 2 here] |  | > 8200 |  | > 8200 | > 8200 | > 8200 | > 8200 | > 8200 |  |  |
| Cc1c(-c2ccccc2)nc2ccc(Br)cc2c1C(=O)NCC(CC(=O)O)c1ccccc1Cl (stereo in doubt; 34) | 13 µM |  |  |  |  |  |  |  |  | CL [8]: 18.3 mL/min/kg |
| Cc1c(N2CCCCC2)nc2ccc(Br)cc2c1C(=O)NCC(CCC(=O)O)c1ccccc1Cl (stereo in doubt; 48) |  |  |  |  |  |  |  |  | 16.7 mL/min/kg |  |
